Common to all, as to assay type: functional
For one test, the system named is OVCAR-3. Description: Cytotoxicity against human OVCAR-3 cell line.
Another test deals with SF-539. The experiment in a line: Cytotoxicity against human SF539 cell line.
The test system of a further test is UACC-62. Description: Cytotoxicity against human UACC62 cell line.
The subject of another test is SN12C. Description: Cytotoxicity against human SN12C cell line.
The next test deals with DU-145. The experiment in a line: Cytotoxicity against human DU145 cell line.
For the next test, the system named is HOP-62. The experiment in a line: Cytotoxicity against human HOP62 cell line.
A further test concerns HCT-116. Description: Cytotoxicity against human HCT116 cell line.
The next test concerns MDA-MB-435. The experiment in a line: Cytotoxicity against human MDA-MB-435 cell line.

In general, GI50 refers to the concentration at which growth is held to half of that of the control. Lower therefore signals greater sensitivity of the cells.

Some results are limits rather than exact numbers.

As to `O=C1c2ccccc2-c2c1c1ccccc1c(=O)n2CCCn1ccnc1`, the GI50 with OVCAR-3 came to 1660 nM; in the test with SF-539 it was 2340 nM; in the test with UACC-62, 790 nM; with SN12C, 1660 nM; with DU-145 it was 1410 nM; with HOP-62, 2690 nM. Also, the GI50 in the test with HCT-116 was determined as 1410 nM.
Consider `COc1cc2c3c(n(CCCN4CCSCC4)c(=O)c2cc1OC)-c1cc2c(cc1C3=O)OCO2`, for which the GI50 in the test with OVCAR-3 was 34700 nM; in the test on SF-539, 18200 nM; in the test with UACC-62, 37200 nM; in the test on DU-145 it was more than 100000 nM; in the test on MDA-MB-435, more than 100000 nM; in the test on HOP-62, 26300 nM. For the same molecule, in the test with HCT-116, the GI50 is 72400 nM.
On to `COc1cc2c3c(n(CCCNCCN4CCOCC4)c(=O)c2cc1OC)-c1cc2c(cc1C3=O)OCO2`, for which the GI50 is 525 nM in the test on OVCAR-3; 550 nM with SF-539; 162 nM in the test on UACC-62; 1480 nM in the test with SN12C; 603 nM with DU-145; 1950 nM with MDA-MB-435. Besides, the GI50 with HOP-62 and with HCT-116 was less than 5 nM each time.
For `COc1cc2c3c(n(CCCN4CCN(CCO)CC4)c(=O)c2cc1OC)-c1cc2c(cc1C3=O)OCO2`, the GI50 with OVCAR-3 was 15100 nM; with SF-539 it was 1440 nM; in the test with UACC-62 it was 1230 nM; in the test on SN12C, more than 100000 nM; in the test on DU-145 it was 275 nM; with MDA-MB-435, more than 100000 nM. In addition, the 50% growth inhibitory concentration (GI50) with HOP-62 was 9770 nM; in the test on HCT-116, 2340 nM.
For `COc1cc2c3c(n(CCCN4CCCNCC4)c(=O)c2cc1OC)-c1cc2c(cc1C3=O)OCO2`, the GI50 was 5010 nM in the test with OVCAR-3; 145 nM in the test on SF-539; 457 nM with UACC-62; 145 nM in the test with SN12C; 81 nM in the test on DU-145; 2630 nM in the test with MDA-MB-435. Further, the results for the GI50 in the test with HOP-62 and in the test with HCT-116 were less than 5 nM and 214 nM, respectively.
For `COc1cc2c3c(n(CCCNC4=NCCS4)c(=O)c2cc1OC)-c1cc2c(cc1C3=O)OCO2`, the GI50 in the test with OVCAR-3 is 41 nM; in the test with SF-539, less than 10 nM; in the test on UACC-62, 14 nM; in the test on SN12C, less than 10 nM; in the test with DU-145, less than 10 nM; in the test with MDA-MB-435, less than 10 nM. Also, the GI50 in the test with HOP-62 and in the test on HCT-116 was less than 10 nM in each case.
For `COc1cc2c3c(n(CCCN4CCN(C)CC4)c(=O)c2cc1OC)-c1cc2c(cc1C3=O)OCO2`, the GI50 is 15100 nM with OVCAR-3; 17800 nM in the test on SF-539; 15100 nM with UACC-62; 11500 nM in the test with SN12C; 10700 nM with DU-145; more than 100000 nM in the test on MDA-MB-435. For the same molecule, the GI50 in the test on HOP-62 turned out to be 18200 nM; with HCT-116, 1480 nM.
Turning to `COc1cc2c3c(n(CCCn4ccnc4)c(=O)c2cc1OC)-c1cc2c(cc1C3=O)OCO2`, the GI50 in the test with OVCAR-3 is 85 nM; with SF-539, 37 nM; in the test on UACC-62, less than 10 nM; in the test on SN12C it was less than 10 nM; with DU-145, less than 10 nM; in the test on MDA-MB-435, 20 nM. For the same molecule, the GI50 in the test with HOP-62 and in the test on HCT-116 was less than 10 nM each time.
Take `COc1cc2c3c(n(CCCN4CCC(N)CC4)c(=O)c2cc1OC)-c1cc2c(cc1C3=O)OCO2`: the GI50 with OVCAR-3 is 832 nM; with SF-539, 100 nM; in the test on UACC-62 it was 1290 nM; in the test with SN12C, 257 nM; in the test on DU-145, 182 nM; in the test on MDA-MB-435, 1740 nM. For the same molecule, the GI50 in the test with HOP-62 is 427 nM; in the test on HCT-116, 120 nM.
Take `COc1cc2c3c(n(CCCN4CCNCC4)c(=O)c2cc1OC)-c1cc2c(cc1C3=O)OCO2`: the GI50 was 2040 nM in the test with OVCAR-3; less than 5 nM with SF-539; 1200 nM in the test on UACC-62; 91 nM in the test on SN12C; 15 nM in the test with DU-145; 4570 nM in the test on MDA-MB-435. The results for the GI50 with HOP-62 and in the test on HCT-116 were less than 5 nM and 575 nM, respectively.
As for `COc1cc2c3c(n(CCCn4cccn4)c(=O)c2cc1OC)-c1cc2c(cc1C3=O)OCO2`, the GI50 in the test with OVCAR-3 was 56200 nM; in the test on SF-539 it was 398 nM; in the test on UACC-62, 269 nM; with SN12C, 316 nM; in the test on DU-145, 363 nM; in the test on MDA-MB-435 it was 7080 nM. The GI50 worked out at 447 nM with HOP-62 and 1990 nM in the test with HCT-116.
Regarding `COc1cc2c3c(n(CCCn4ccnc4)c(=O)c2cc1OC)-c1ccccc1C3=O`, the GI50 was less than 10 nM in the test on OVCAR-3; less than 10 nM in the test with SF-539; less than 10 nM in the test with UACC-62; less than 10 nM in the test with SN12C; less than 10 nM in the test on DU-145; 14 nM in the test with MDA-MB-435. Besides, the GI50 in the test with HOP-62 and in the test on HCT-116 was less than 10 nM throughout.
For the molecule `COc1cc2c3c(n(CCCN4CCCC(O)C4)c(=O)c2cc1OC)-c1cc2c(cc1C3=O)OCO2` (configuration not stated), the GI50 in the test with OVCAR-3 is 5750 nM; in the test on SF-539 it was less than 5 nM; in the test on UACC-62, 5010 nM; in the test with SN12C, 126 nM; in the test with DU-145 it was less than 5 nM; in the test on MDA-MB-435, 977 nM. For the same molecule, the GI50 in the test with HOP-62 and in the test with HCT-116 was less than 5 nM each time.
For the molecule `O=C1c2ccccc2-c2c1c1ccc([N+](=O)[O-])cc1c(=O)n2CCCn1ccnc1`, the GI50 in the test with OVCAR-3 is 864 nM; with SF-539, 16 nM; with UACC-62, 12 nM; with SN12C, 15 nM; with DU-145, 17 nM; in the test with MDA-MB-435 it was 2170 nM. Besides, the GI50 worked out at 190 nM in the test on HOP-62 and 274 nM with HCT-116.
As for `COc1cc2c3c(n(CCCn4cncn4)c(=O)c2cc1OC)-c1cc2c(cc1C3=O)OCO2`, the GI50 in the test on OVCAR-3 was 61700 nM; with SF-539 it was 288 nM; in the test with UACC-62 it was less than 10 nM; in the test on SN12C it was 85 nM; in the test on DU-145, 85 nM; in the test on MDA-MB-435, more than 100000 nM. The GI50 in the test on HOP-62 worked out at 79 nM; in the test with HCT-116 it was 1910 nM.
As for `COc1cc2c3c(n(C)c(=O)c2cc1OC)-c1cc2c(cc1C3=O)OCO2`, the GI50 turned out to be 4200 nM in the test with UACC-62; 68000 nM in the test on SN12C; 37000 nM with DU-145; 96000 nM in the test on MDA-MB-435; 1300 nM with HOP-62; 35000 nM in the test on HCT-116.
Regarding `COc1cc2c3c(n(CCCN4CCOCC4)c(=O)c2cc1OC)-c1cc2c(cc1C3=O)OCO2` [INDOTECAN], the GI50 in the test with OVCAR-3 is 74100 nM; in the test with SF-539, 40 nM; with UACC-62, 30 nM; in the test with SN12C, 813 nM; with DU-145 it was 155 nM; in the test on MDA-MB-435, 67600 nM. In addition, the GI50 came out at 1780 nM in the test with HOP-62 and 1150 nM in the test on HCT-116.

These data come from ChEMBL document CHEMBL1137391, “Synthesis and evaluation of indenoisoquinoline topoisomerase I inhibitors substituted with nitrogen heterocycles” (2006).
